Legend:
Assay in all cases: relative viability (nuclei count vs DMSO), 5 days (fraction); higher = more cells survive
[1] = compound: COc1cc2nccc(Oc3ccc(NC(=O)C4(C(=O)Nc5ccc(F)cc5)CC4)cc3)c2cc1OC [Cabozantinib] + N=C(N)NC(=N)NCCc1ccccc1 [Phenformin] (partner 250 µM)
Procedure, shortened: (§1)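 Medians of duplicate plates are given as relative viability. That measure is the nuclei count in treated wells divided by the count in vehicle wells. Counts were taken on 4× images of lung cancer cell lines in 1536-well plates, 5 days after pin-tool dosing the day after seeding with one drug alone or a fixed anchor-drug dose plus five library-drug doses (not always all listed) in √10 steps.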

[2] = compound: O[C@@H](COc1cccc2ncccc12)CN1CCN([C@@H]2c3ccccc3[C@@H]3[C@H](c4ccccc42)C3(F)F)CC1 [Zosuquidar] + C[C@@H](Oc1cc(-c2cnn(C3CCNCC3)c2)cnc1N)c1c(Cl)ccc(F)c1Cl [Crizotinib] (partner 1 µM)
Procedure, shortened: as §1

[3] = compound: COc1cc2nccc(Oc3ccc(NC(=O)C4(C(=O)Nc5ccc(F)cc5)CC4)cc3)c2cc1OC [Cabozantinib] + O=C(c1cc(Cc2n[nH]c(=O)c3ccccc23)ccc1F)N1CCN(C(=O)C2CC2)CC1 [Olaparib] (partner 8 µM)
Procedure, shortened: as §1

[4] = compound: C1=CC(=CC=C1NC(=S)NNC2=C(C=C(C=C2[N+](=O)[O-])C(F)(F)F)[N+](=O)[O-])F [Kobe2602] + CS(=O)(=O)N1CCN(Cc2cc3nc(-c4cccc5[nH]ncc45)nc(N4CCOCC4)c3s2)CC1 [Pictilisib] (partner 1 µM)
Procedure, shortened: as §1

Cell Line | relative viability ([1]; first compound 0.02 µM) | relative viability ([1]; first compound 0.06325 µM) | relative viability ([1]; first compound 0.2 µM) | relative viability ([1]; first compound 0.6325 µM) | relative viability ([1]; first compound 2 µM) | relative viability ([2]; first compound 0.01 µM) | relative viability ([2]; first compound 0.03162 µM) | relative viability ([2]; first compound 0.1 µM) | relative viability ([2]; first compound 0.3162 µM) | relative viability ([2]; first compound 1 µM) | relative viability ([3]; first compound 0.02 µM) | relative viability ([3]; first compound 0.06325 µM) | relative viability ([3]; first compound 0.2 µM) | relative viability ([3]; first compound 0.6325 µM) | relative viability ([3]; first compound 2 µM) | relative viability ([4]; first compound 0.2 µM) | relative viability ([4]; first compound 0.6325 µM) | relative viability ([4]; first compound 2 µM) | relative viability ([4]; first compound 6.325 µM) | relative viability ([4]; first compound 20 µM)
NCI-H1437 | 0.301 | 0.374 | 0.284 | 0.326 | 0.322 | 0.868 | 0.994 | 0.92 | 0.911 | 0.897 | 0.656 | 0.633 | 0.655 | 0.615 | 0.607 | 0.412 | 0.501 | 0.471 | 0.424 | 0.363
NCI-H1650 | 0.434 | 0.556 | 0.395 | 0.43 | 0.376 | 0.888 | 1.02 | 0.974 | 1.01 | 1.02 | 0.831 | 0.958 | 0.713 | 0.753 | 0.809 | 0.554 | 0.806 | 0.635 | 0.658 | 0.597
NCI-H1651 | 0.316 | 0.329 | 0.316 | 0.298 | 0.292 | 0.849 | 0.965 | 0.854 | 0.869 | 0.87 | 0.176 | 0.196 | 0.202 | 0.184 | 0.192 | 0.691 | 0.69 | 0.636 | 0.537 | 0.537
NCI-H1666 | 0.568 | 0.559 | 0.607 | 0.544 | 0.601 | 1.02 | 0.975 | 1.18 | 0.986 | 1.08 | 0.821 | 0.802 | 0.719 | 0.715 | 0.732 | 0.345 | 0.5 |  | 0.276 | 0.471
NCI-H1734 | 0.368 | 0.395 | 0.403 | 0.406 | 0.355 | 0.64 | 0.566 | 0.662 | 0.72 | 0.705 | 0.67 | 0.646 | 0.711 | 0.635 | 0.584 | 0.439 | 0.475 | 0.464 | 0.454 | 0.533
NCI-H1755 | 0.611 | 0.624 | 0.57 | 0.644 | 0.561 | 0.859 | 0.924 | 0.839 | 0.881 | 0.876 | 0.868 | 0.898 | 0.872 | 0.785 | 0.79 | 0.445 | 0.476 | 0.421 | 0.439 | 0.435
NCI-H1792 |  | 0.374 | 0.37 | 0.254 | 0.251 | 0.912 | 0.771 | 0.776 | 0.954 | 0.977 |  | 0.56 | 0.419 | 0.317 | 0.373 | 0.24 | 0.337 | 0.389 | 0.252 | 0.303
NCI-H1915 | 0.364 | 0.389 | 0.374 | 0.373 | 0.362 | 0.868 | 0.938 | 0.887 | 0.882 | 0.909 | 0.296 | 0.28 | 0.283 | 0.239 | 0.255 | 0.959 | 0.993 | 0.994 | 0.989 | 1.02
NCI-H1944 | 0.17 | 0.213 | 0.193 | 0.208 | 0.204 | 1.03 | 1.09 | 1.03 | 1.04 | 1.12 | 0.426 | 0.413 | 0.404 | 0.401 | 0.52 | 0.344 | 0.381 | 0.353 | 0.349 | 0.374
NCI-H1975 | 0.408 | 0.462 | 0.386 | 0.423 | 0.399 | 0.923 | 0.941 | 1.01 | 0.924 | 1.09 | 0.881 | 0.916 | 0.892 | 0.786 | 0.679 | 0.279 | 0.276 | 0.277 | 0.256 | 0.299
NCI-H1993 | 0.448 | 0.521 | 0.511 | 0.473 | 0.476 | 0.864 | 0.859 | 0.789 | 1.01 | 0.881 | 1.03 | 0.975 | 0.75 | 0.785 | 0.981 | 0.649 | 0.807 | 0.861 | 0.893 | 0.785
NCI-H2009 | 0.532 | 0.549 | 0.547 | 0.518 | 0.459 | 1.02 | 1.01 | 1.05 | 1.06 | 1.01 | 0.718 | 0.71 | 0.703 | 0.712 | 0.762 | 0.843 | 0.877 | 0.874 | 0.876 | 0.897
NCI-H2023 | 0.444 | 0.463 | 0.337 | 0.26 | 0.236 | 0.593 | 0.679 | 0.743 | 0.741 | 0.606 | 0.483 | 0.545 | 0.383 | 0.429 | 0.433 | 0.259 | 0.269 | 0.223 | 0.215 | 0.228
NCI-H2085 | 0.749 | 0.752 | 0.595 | 0.695 | 0.616 | 0.822 | 0.823 | 0.899 | 0.792 | 0.874 | 0.842 | 0.805 | 0.786 | 0.781 | 0.776 | 0.484 | 0.448 | 0.483 | 0.466 | 0.489
NCI-H2087 | 0.422 | 0.455 | 0.471 | 0.429 | 0.456 | 0.839 | 1.05 | 0.817 | 0.915 | 0.836 | 0.702 | 0.643 | 0.622 | 0.523 | 0.605 | 0.86 | 0.832 | 0.78 | 0.841 | 0.95
NCI-H2126 | 0.443 | 0.555 | 0.539 | 0.544 | 0.586 | 0.92 | 0.987 | 0.911 | 1.04 | 1.07 | 0.937 | 0.932 | 0.865 | 0.938 | 0.946 | 0.508 | 0.508 | 0.485 | 0.475 | 0.492

— the supplement of paper PMC10307832
